This is an account of results in publication PMC6127852 (Journal of Enzyme Inhibition and Medicinal Chemistry, 2018).

In data set [1] the test system is calf thymus ctDNA. In words: UV–Vis titration with ctDNA (Scatchard). In kind it is binding. The following applies: UV–Vis titration, PBS, pH 7; footnote e: calculated from experimental data. In outline: (§1)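 Polynucleotides titrated into compound at 1.48 × 10^−5 mol dm^−3 in PBS (I = 0.05 mol dm^−3, pH 7.0), with UV–Vis spectra in 1 cm quartz cells; ctDNA sonicated and filtered, concentration as nucleobases. Ks and n from Scatchard analysis, in some cases only from data at r ≥ 0.1.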

The test system of data set [2] is polyA-polyU. Put plainly: UV–Vis titration with polyA-polyU (Scatchard). In kind it is binding. The settings on record: for Hypochromic effect H/%, polyA-polyU (from experimental data): footnote e: calculated from experimental data. An outline of the steps: as §1
For data set [3], the system named is polyC-polyG. In words: UV–Vis titration with polyC-polyG (Scatchard). The settings on record: PBS, pH 7. The data set is classed as binding. An outline of the steps:
as §1

For data set [4], the system named is E. faecium VRE. In words: Broth microdilution MIC, VRE clinical strain. The data set is classed as cell-based. The settings on record: Enterococcus faecium. An outline of the steps:
(§2)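 MICs were set by CLSI broth microdilution in cation (Ca2+, Mg2+)-adjusted Mueller–Hinton broth, in triplicate. Panel: S. aureus ATCC 25923, MRSA, MSSA, E. faecalis, VRE E. faecium, E. coli ATCC 25925, P. aeruginosa ATCC 27853, A. baumannii ATCC 19606 and ESBL K. pneumoniae ATCC 27736.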
In general terms: Broth dilution looks for growth in wells or tubes with falling amounts of substance.

The subject of data set [5] is S. aureus ATCC 25923. Put plainly: Broth microdilution MIC, S. aureus ATCC 25923. In kind it is cell-based. The settings on record: Staphylococcus aureus, ATCC25923; Table S2. An outline of the steps:
(§3)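 Cation (Ca2+/Mg2+)-adjusted Mueller–Hinton broth, standard CLSI broth microdilution. MIC determined per strain, tested in triplicate.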

The test system of data set [6] is E. faecalis ATCC 29212. In words: Broth microdilution MIC, E. faecalis ATCC 29212. The settings on record: Enterococcus faecalis, ATCC29212; Table S2. The data set is classed as cell-based. In outline:
as §3

For data set [7], the system named is E. coli ATCC 25925. In words: Broth microdilution MIC, E. coli ATCC 25925. The data set is classed as cell-based. The following applies: Escherichia coli, ATCC25925; Table S2. An outline of the steps:
as §3

Data set [8] deals with K. pneumonia ATCC 700803. In words: Broth microdilution MIC, K. pneumoniae ATCC 700803. The data set is classed as cell-based. The settings on record: Klebsiella pneumoniae, ATCC700803; Table S2. In outline: as §3
For data set [9], the system named is P. aeruginosa ATCC 27853. Put plainly: Broth microdilution MIC, P. aeruginosa ATCC 27853. The settings on record: Pseudomonas aeruginosa, ATCC27853; Table S2. The data set is classed as cell-based. In outline: as §3
In data set [10] the test system is A. baumannii ATCC 19606. Put plainly: Broth microdilution MIC, A. baumannii ATCC 19606. In kind it is cell-based. The following applies: Acinetobacter baumannii, ATCC19606; Table S2. In outline: as §3
The subject of data set [11] is Gram-positive and Gram-negative bacteria. In words: Anti-microbial activity overall (all tested bacteria). The settings on record: summary over tested strains; read-out: MIC, anti-microbial activities overall. The data set is classed as cell-based. Here is the method:
The compounds were evaluated for their in vitro anti-bacterial activity against Gram-positive bacteria: S. aureus (ATCC 25923), MRSA, methicillin-sensitive S. aureus (MSSA), E. faecalis, vancomycin-resistant E. faecium (VREF), and Gram-negative bacteria: E. coli (ATCC 25925), P. aeruginosa (ATCC 27853), A. baumannii (ATCC 19606) and ESBL-producing K. pneumoniae (ATCC 27736). Standard broth microdilution method as recommended in guidelines of Clinical and Laboratory Standards Institute[61] ^, [65] ^, [66] was applied and the minimum inhibitory concentration (MIC) of compounds was tested. In short, testing was performed in U-bottomed 96-well sterile plastic microdilution trays (Falcon 3077, Becton Dickinson Labware, Franklin Lakes, NJ) in cation (Ca^2+ and Mg^2+) adjusted Mueller–Hinton broth medium (Becton Dickinson and Co., Cockeysville, MD). All testings were performed in triplicate.

The subject of data set [12] is bloodstream form T. brucei (strain 221). In words: Anti-trypanosomal screening, resazurin. The data set is classed as cell-based. The following applies: Trypanosoma brucei, mean of triplicate ± SEM. In outline:
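Parasites grown in modified Iscove's medium with compound in triplicate; resazurin added at 48 h and plates read after a further 16 h.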
On the technique in general: Resazurin is reduced to fluorescent resorufin, in cell work by metabolically active cells.

In data set [13] the test system is L6 cells (a rat myoblast line). Put plainly: Cytotoxicity against mammalian cells, resazurin. The data set is classed as cell-based. The settings on record: L6, 144 h, 6 d incubation. The method, then: Cytotoxicity against mammalian cells was also assessed using microtitre plates. Briefly, L6 cells (a rat myoblast line) were seeded at 1 × 10^4 ml^−1 in 200 µl of growth medium containing different compound concentrations. The plates were then incubated for 6 d at 37 °C and 20 µl resazurin added to each well. After a further 8 h incubation, the fluorescence was determined using a Spectramax plate reader, as outlined above.

Data set [14] deals with polyA-polyU. In words: Thermal melting (ΔTm) of polyA-polyU. The data set is classed as binding. In outline: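 UV melting monitored at 260 nm in 1 cm cuvettes, ligand absorbance subtracted and normalised; ΔTm = Tm(complex) − Tm(free nucleic acid), mean of at least two runs, error ±0.5 °C. Compound tested at r = 0.1, 0.3, 0.5 and 0.7 eq ([compound]/[polynucleotide]) with ctDNA and polyA-polyU.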

In data set [15] the test system is S. aureus MRSA. In words: Broth microdilution MIC, MRSA clinical strain. In kind it is cell-based. The following applies: Staphylococcus aureus, antibiotic-resistant clinical strain. An outline of the steps: as §2
In data set [16] the test system is S. aureus MSSA. Put plainly: Broth microdilution MIC, MSSA clinical strain. The following applies: Staphylococcus aureus. In kind it is cell-based. An outline of the steps: as §2
The test system of data set [17] is bloodstream form T. brucei (strain 221). The settings on record: read-out: T. brucei IC50 (reference drug), ref [83]; cited from earlier work.

Where two headings read alike, the source gives them in different places.

On to `COc1ccc(-n2cc(COc3ccc(-c4nc5cc(C(=N)N)ccc5[nH]4)cc3)nn2)cc1.Cl.Cl` [Compound 7b, 2–(4-((1–(4-Methoxyphenyl)-1H-1,2,3-triazol-4-yl)methoxy)phenyl)-1H-benz[d]imidazole-5-carboximidamide dihydrochloride], for which the melting point (usually the temperature of the solid-liquid transition) is 195 to 197 °C. The “Hypochromic effect H/%, ctDNA (from experimental data)” value in data set [1] was 22.1 ^e %. For the same compound, in data set [2], the “Hypochromic effect H/%, polyA-polyU (from experimental data)” value is 27.9 ^e %. In addition, the “Hypochromic effect H/%, polyC-polyG” value in data set [3] (UV–Vis titration, calculated by Scatchard equation) is recorded as 13.7%. For the same compound, the “log Ks, polyC-polyG” value in data set [3] (binding constant, Scatchard) was found to be 6.27. Also, in data set [4], the MIC (as a rule, the smallest concentration in the dilution series that meets the test's criterion for growth inhibition) was found to be 256 µg/mL. The compound also showed an MIC in [5] of over 256 µg/mL. In data set [6], 128 µg/mL was the least that counted as inhibitory (MIC). In data set [7], this compound returned an MIC of over 256 µg/mL. Moreover, the MIC in [8] is over 256 µg/mL. The same compound displayed an MIC in data set [9] of over 256 µg/mL. Moreover, the MIC in data set [10] was over 256 µg/mL. The MIC in data set [11] is at least 128 µg/mL. Further, in [12], the IC50 (in general, the concentration that gives 50% inhibition) is 1.5 ± 0.3 µM and the concentration for an effect of 90% (IC90) (usually the concentration needed for an effect of 90%) is 8.1 ± 0.6 µM. In data set [13], 302 ± 15 µM corresponded to half-maximal inhibition (IC50).
Consider `COc1ccc(-n2cc(COc3ccc(-c4nc5cc(C6=NCCN6)ccc5[nH]4)cc3)nn2)cc1.Cl.Cl` [Compound 9b, 5–(4,5-Dihydro-1H-imidazol-2-yl)-2–(4-((1–(4-methoxyphenyl)-1H-1,2,3-triazol-4-yl)methoxy)phenyl)-1H-benz[d]imidazole dihydrochloride], for which the melting point was 197 to 199 °C. Moreover, the “Hypochromic effect H/%, ctDNA (from experimental data)” value in data set [1] is recorded as 18.9 ^e %. Besides, the “log Ks, polyA-polyU” value in [2] (binding constant, Scatchard, PBS, pH 7) turned out to be 5.46. The “Hypochromic effect H/%, polyA-polyU (from experimental data)” value in [2] is reported as 31.6 ^e %. The “ΔTm, polyA-polyU, r = 0.1” value in data set [14] (r = 0.1, PBS, pH 7) was 2.49 °C. Further, in data set [14] (r = 0.3, first melting midpoint), the “ΔTm, polyA-polyU, r = 0.3” value is 2.67 °C. Also, the “ΔTm, polyA-polyU, r = 0.3, second melting midpoint” value in data set [14] (r = 0.3, footnote c: biphasic melting curve) was 36.08^c °C. Further, the “ΔTm, polyA-polyU, r = 0.5” value in data set [14] (r = 0.5, first melting midpoint) is 2.92 °C. The “ΔTm, polyA-polyU, r = 0.5, second melting midpoint” value in [14] (r = 0.5, footnote c: biphasic melting curve) was 40.93^c °C. The same compound yielded an MIC in [15] of 256 µg/mL. Also, the MIC in data set [16] came out at 256 µg/mL. This compound gave an MIC in data set [4] of 256 µg/mL. In data set [5], the MIC is 128 µg/mL. This compound also registered an MIC in data set [6] of 256 µg/mL. In [7], inhibition of growth (MIC) required 256 µg/mL. The compound further gave an MIC in data set [8] of over 256 µg/mL. Moreover, the MIC in data set [9] was over 256 µg/mL. Moreover, in data set [10], the minimal inhibitory concentration (MIC) was over 256 µg/mL. The MIC in data set [11] is at least 128 µg/mL. In data set [12], this compound gave an IC50 of 1.6 ± 0.4 µM and an IC90 of 7.3 ± 0.3 µM. The compound also returned an IC50 in data set [13] of 263 ± 15 µM.
For `CC1CS(=O)(=O)CCN1/N=C/c1ccc([N+](=O)[O-])o1` (stereo not drawn) [Nifurtimox, nifurtimox], in data set [17], the IC50 was 4.4 ± 0.7 µM.
